Measured values as given in US11160809B2, “NK1-antagonist combination and method for treating synucleinopathies” (priority 2017, dated 2021).
Read-outs that look alike come from different tables or passages of the source.

Key:
[1] = for MTD-1 (Pramipexole alone): Period 1
Method: The starting dose of pramipexole was 0.5 mg and the dose was increased daily by 0.5 mg increments.
When a subject reached FID-1 on pramipexole alone, the subject was washed out for at least 5 days, and then entered Period 2 of the study during which the subject received single daily oral doses of pramipexole starting at 0.5 mg and titrated upward by 0.5 mg increments, together with oral aprepitant (80 mg) until subjects again reached an intolerable dose defined as above. The FID on oral pramipexole plus oral aprepitant was referred to as FID-2.
If a subject reached FID-2 during Period 2 at the same or lower dose than FID-1, and providing the investigator judged there were no safety issues and the subject was consenting, the subject received the same dose of pramipexole as the FID-2 dose together with a higher dose of oral aprepitant (120 mg) on the next day and the protocol specified that said subject should continue with the remainder of the dose titration with the higher dose of oral aprepitant (120 mg) until they reach the intolerable dose (FID2+). All other provisions of the protocol remained unchanged. Assessments were the same as those planned for the dose escalation day.
In addition, a laboratory panel was taken at screening and at the end of the study.

[2] = test system: dopaminergic neurons in a mouse PD model; details: cited from earlier work
[3] = target: alpha-synuclein in human neuroblastoma SH-SY5Y cells (Homo sapiens, UniProt P37840); details: cited from earlier work
[4] = doses approved for motor symptoms of PD; 535 PD patients; cited from earlier work
[5] = target: synuclein (Homo sapiens, UniProt P37840); details: in vitro; cited from earlier work
[6] = target: human wild-type alpha-synuclein (Homo sapiens, UniProt P37840); details: in vitro; by H2O2 plus cytochrome c; cited from earlier work
[7] = 5 mg/day of pramipexole, cited from earlier work

## CCCN[C@H]1CCc2nc(N)sc2C1 [Pramipexole, (S)-6-propylamino-4,5,6,7-tetrahydro-1,3-benzothiazole-2-amine]
[1]; Subject 1001
  MTD-1 (Pramipexole alone): 2.0 mg
[1]; Subject 1006, NA, not tolerated at 0.5 mg
  MTD-1 (Pramipexole alone): NA (not tolerated
[1]; Subject 1007
  MTD-1 (Pramipexole alone): 4.0 mg
[1]; Subject 1008
  MTD-1 (Pramipexole alone): 1.0 mg
[1]; human, in vivo
  Reaching of FID-1: All subjects reached FID-1
[1]; in vivo
  Dose limiting toxicity: gastro-intestinal adverse events
[2]; mouse PD model
  Toxic effects of rotenone on dopaminergic neurons: inhibits the toxic effects of rotenone
[2]; rotenone mouse PD model
  Immunoreactivity for alpha-synuclein: reducing immunoreactivity for alpha-synuclein
[3]
  Aggregation of alpha-synuclein: inhibit the aggregation of alpha-synuclein
[4]
  Neuroprotective (disease modifying) activity: failed to evidence neuroprotective (i.e., disease modifying) activity
[5]
  Synuclein oligomer formation: diminishes synuclein oligomer formation
[6]
  Oligomerization of human wild-type alpha-synuclein: decreases the in vitro oligomerization
[7]
  Nausea: 76 % of patients
  Vomiting: 39 % of patients
[7]; presumably because of intolerable GI adverse events
  Patients not able to complete the study: 36 % of patients
